Assay results as given in ChEMBL document CHEMBL3758177, “Synthesis and biological evaluation of novel phosphoramidate derivatives of coumarin as chitin synthase inhibitors and antifungal agents” (Eur J Med Chem, 2016).
Converted amounts (≈) assume the structure as drawn.

Legend:
Aspergillus fumigatus = experiment: Antifungal activity against Aspergillus fumigatus GIMCC 3.19 after 24 hrs by two-fold serial dilution method; type: functional; settings: GIMCC 3.19, 24 h
Candida tropicalis = experiment: Inhibition of Candida tropicalis ATCC 750 chitin synthase using UDP-GlcNAc as substrate at 300 ug/ml after 60 mins by microplate reader method
Cryptococcus neoformans = experiment: Antifungal activity against Cryptococcus neoformans ATCC 32719 after 24 hrs by two-fold serial dilution method; type: functional; settings: ATCC 32719, 24 h
[1] = Inhibition of Candida tropicalis ATCC 750 chitin synthase using UDP-GlcNAc as substrate after 60 mins by microplate reader method
Aspergillus flavus = experiment: Antifungal activity against Aspergillus flavus ATCC 16870 after 24 hrs by two-fold serial dilution method; type: functional; settings: ATCC 16870, 24 h
Candida albicans [2] = experiment: Antifungal activity against Candida albicans CMCC 76615 after 24 hrs by two-fold serial dilution method; type: functional; settings: CMCC 76615, 24 h
Bacillus spizizenii = experiment: Antibacterial activity against Bacillus subtilis ATCC 6633 after 24 hrs by two-fold serial dilution method; type: functional; settings: ATCC 6633, 24 h
Pseudomonas aeruginosa = experiment: Antibacterial activity against Pseudomonas aeruginosa ATCC 9027 after 24 hrs by two-fold serial dilution method; type: functional; settings: ATCC 9027, 24 h
Staphylococcus aureus [3] = experiment: Antibacterial activity against Staphylococcus aureus ATCC 25923 after 24 hrs by two-fold serial dilution method; type: functional; settings: ATCC 25923, 24 h
Staphylococcus aureus [4] = experiment: Antibacterial activity against Methicillin-resistant Staphylococcus aureus N 315 after 24 hrs by two-fold serial dilution method; type: functional; settings: N 315, 24 h
Proteus vulgaris = experiment: Antibacterial activity against Proteus vulgaris ATCC 8427 after 24 hrs by two-fold serial dilution method; type: functional; settings: ATCC 8427, 24 h
Escherichia coli = experiment: Antibacterial activity against Escherichia coli JM 109 after 24 hrs by two-fold serial dilution method; type: functional; settings: JM 109, 24 h
Fusarium oxysporum [5] = experiment: Antifungal activity against Fusarium oxysporum ITCC 6246 after 48 hrs by microdilution method; type: functional; settings: ITCC 6246, 48 h
Candida albicans [6] = experiment: Antifungal activity against Candida albicans CMCC 76615 after 48 hrs by microdilution method; type: functional; settings: CMCC 76615, 48 h
Fusarium oxysporum [7] = experiment: Antifungal activity against Fusarium oxysporum ITCC 6246 after 48 hrs by micro-titer plate method; type: functional; settings: ITCC 6246, 48 h

SMILES | MIC (Aspergillus fumigatus) [mg/L] | inhibition (Candida tropicalis) [%] | MIC (Cryptococcus neoformans) [mg/L] | IC50 [1] [µM] | MIC (Aspergillus flavus) [mg/L] | MIC (Candida albicans [2]) [mg/L] | MIC (Bacillus spizizenii) [mg/L] | MIC (Pseudomonas aeruginosa) [mg/L] | MIC (Staphylococcus aureus [3]) [mg/L] | MIC (Staphylococcus aureus [4]) [mg/L] | MIC (Proteus vulgaris) [mg/L] | MIC (Escherichia coli) [mg/L] | MIC (Fusarium oxysporum [5]) [mg/L] | MIC (Candida albicans [6]) [mg/L] | MIC (Fusarium oxysporum [7]) [mg/L]
NC(=O)OC[C@H](O)[C@@H](O)[C@H](N)C(=O)N[C@H](C(=O)O)[C@H]1O[C@@H](n2cc(CO)c(=O)[nH]c2=O)[C@H](O)[C@@H]1O [POLYOXIN B] | 64 (≈ 126 µM) | 82 | 8 (≈ 15.8 µM) | 160 | 64 (≈ 126 µM) | 32 (≈ 63.1 µM) | – | – | – | – | – | – | – | – | –
COC(=O)C(Cc1ccccc1)NP(=O)(OCCN(C)c1cc(=O)oc2cc(C)ccc12)Oc1ccccc1 (centres undefined) | 64 (≈ 116 µM) | 56 | 32 (≈ 58.1 µM) | 300 | 1 (≈ 1.82 µM) | 64 (≈ 116 µM) | 16 (≈ 29.1 µM) | 128 (≈ 232 µM) | 32 (≈ 58.1 µM) | 2 (≈ 3.63 µM) | 16 (≈ 29.1 µM) | 16 (≈ 29.1 µM) | – | – | –
COC(=O)C(Cc1ccccc1)NP(=O)(OCCN(C)c1cc(=O)oc2c(C)cccc12)Oc1ccccc1 (centres undefined) | 128 (≈ 232 µM) | 48 | 64 (≈ 116 µM) | – | 64 (≈ 116 µM) | 128 (≈ 232 µM) | 16 (≈ 29.1 µM) | 128 (≈ 232 µM) | 256 (≈ 465 µM) | 1 (≈ 1.82 µM) | 256 (≈ 465 µM) | 256 (≈ 465 µM) | – | – | –
CC1COc2c(N3CCN(C)CC3)c(F)cc3c(=O)c(C(=O)O)cn1c23 (centres undefined) [OFLOXACIN] | – | – | – | – | – | – | 0.25 (≈ 0.692 µM) | 0.25 (≈ 0.692 µM) | 1 (≈ 2.77 µM) | 1 (≈ 2.77 µM) | 0.25 (≈ 0.692 µM) | 0.25 (≈ 0.692 µM) | – | – | –
COC(=O)CNP(=O)(OCCN(C)c1cc(=O)oc2cc(C)ccc12)Oc1ccccc1 (centres undefined) | 32 (≈ 69.5 µM) | 59 | 16 (≈ 34.8 µM) | 320 | 64 (≈ 139 µM) | 32 (≈ 69.5 µM) | 512 (≈ 1110 µM) | 512 (≈ 1110 µM) | 256 (≈ 556 µM) | 256 (≈ 556 µM) | 512 (≈ 1110 µM) | 128 (≈ 278 µM) | – | – | –
COC(=O)CNP(=O)(OCCN(C)c1cc(=O)oc2ccc(C)cc12)Oc1ccccc1 (centres undefined) | 64 (≈ 139 µM) | 51 | 64 (≈ 139 µM) | 600 | 64 (≈ 139 µM) | 128 (≈ 278 µM) | 256 (≈ 556 µM) | 128 (≈ 278 µM) | 256 (≈ 556 µM) | 256 (≈ 556 µM) | 512 (≈ 1110 µM) | 512 (≈ 1110 µM) | – | – | –
Cc1ccc(NS(=O)(=O)c2cc3c(CN=[N+]=[N-])cc(=O)oc3cc2C)cc1 | – | – | – | – | – | – | – | – | – | – | – | – | 1 (≈ 2.6 µM) | 1 (≈ 2.6 µM) | –
COC(=O)CNP(=O)(OCCN(C)c1cc(=O)oc2c(C)cccc12)Oc1ccccc1 (centres undefined) | 128 (≈ 278 µM) | 55 | 64 (≈ 139 µM) | 450 | 64 (≈ 139 µM) | 64 (≈ 139 µM) | 512 (≈ 1110 µM) | 256 (≈ 556 µM) | 128 (≈ 278 µM) | 256 (≈ 556 µM) | 256 (≈ 556 µM) | 32 (≈ 69.5 µM) | – | – | –
CN[C@@H]1[C@H](O[C@H]2[C@H](O[C@H]3[C@H](O)[C@@H](O)[C@H](N=C(N)N)[C@@H](O)[C@@H]3N=C(N)N)O[C@@H](C)[C@]2(O)C=O)O[C@@H](CO)[C@H](O)[C@H]1O [STREPTOMYCIN] | – | – | – | – | – | – | 4 (≈ 6.88 µM) | 4 (≈ 6.88 µM) | 4 (≈ 6.88 µM) | 4 (≈ 6.88 µM) | 1 (≈ 1.72 µM) | 4 (≈ 6.88 µM) | – | – | –
COC(=O)C(NP(=O)(OCCN(C)c1cc(=O)oc2c(C)cccc12)Oc1ccccc1)C(C)C (centres undefined) | 128 (≈ 255 µM) | 45 | 128 (≈ 255 µM) | – | 128 (≈ 255 µM) | 128 (≈ 255 µM) | 32 (≈ 63.7 µM) | 256 (≈ 509 µM) | 128 (≈ 255 µM) | 32 (≈ 63.7 µM) | 256 (≈ 509 µM) | 256 (≈ 509 µM) | – | – | –
C=C1CC(CC/C(C)=C\COc2ccc3ccc(=O)oc3c2)OC1=O (centres undefined) | – | – | – | – | – | – | – | – | – | – | – | – | – | – | 19 (≈ 55.8 µM)
COC(=O)C(NP(=O)(OCCN(C)c1cc(=O)oc2cc(C)ccc12)Oc1ccccc1)C(C)C (centres undefined) | 128 (≈ 255 µM) | 38 | 128 (≈ 255 µM) | – | 128 (≈ 255 µM) | 128 (≈ 255 µM) | 32 (≈ 63.7 µM) | 64 (≈ 127 µM) | 64 (≈ 127 µM) | 128 (≈ 255 µM) | 128 (≈ 255 µM) | 256 (≈ 509 µM) | – | – | –
COC(=O)CNP(=O)(OCCN(C)c1cc(=O)oc2ccc(C(C)(C)C)cc12)Oc1ccccc1 (centres undefined) | 32 (≈ 63.7 µM) | 50 | 32 (≈ 63.7 µM) | 620 | 64 (≈ 127 µM) | 64 (≈ 127 µM) | 16 (≈ 31.8 µM) | 16 (≈ 31.8 µM) | 64 (≈ 127 µM) | 8 (≈ 15.9 µM) | 64 (≈ 127 µM) | 64 (≈ 127 µM) | – | – | –
